In series [1] the test system is Zucker diabetic fatty (ZDF) rats. In words: Restoration of insulin sensitivity in Zucker diabetic fatty (ZDF) rats. Type of series: in vivo. To be noted: 250 mg/kg oral daily. The method, then: To assess whether conjugates comprising an antioxidant agent and an inflammatory agent would prevent glucose toxicity and progression of diabetes mellitus associated with β-cell failure overtime, we assessed whether compounds of Formula (I), including salnacedin, would alter the development of the disease in this Type 2 diabetic animal model.
Zucker diabetic rats from 6 to 12 weeks of age are treated daily with an oral dose of 250 mg/kg of a compound of the present invention, such as salnacedin.

For series [2], the system named is streptozotocin-induced diabetic mice. In words: Type 1 diabetic model in mice (streptozotocin 120 mg/kg i.p.). Type of series: in vivo. To be noted: 4 weeks. As for the experimental part:
Mice induced by streptozotocin injection (120 mg/kg i.p.) are treated for 4 weeks with 250 mg/kg/day (oral or i.p.) of a compound of the present invention, such as […]. At the end of the 4 week treatment, fasting glucose, fructosamine, triglycerides and cholesterol are measured.

The subject of series [3] is animal models of diabetes. In words: Summary of effects in different animal models of diabetes. Type of series: in vivo.
For series [4], the system named is β-cells. In words: Protection of β-cell failure and prevention of hyperglycemia in streptozotocin treated rats. Type of series: in vivo.
For series [5], the system named is β-cells. The experiment in a line: Preserving β-cell function of mice challenged by one shot of streptozotocin. Type of series: in vivo. To be noted: oral or intraperitoneal, prior and during 5 days following streptozotocin 45 mg/kg i.p. As for the experimental part:
Further, compounds of the present invention, such as Salnacedin, are tested for their efficiency at preserving β-cell function of mice challenged by one shot of streptozotocin (45 mg/kg i.p.).

Series [6] concerns ob/ob and db/db mice. In words: Restoration of insulin sensibility in ob/ob and db/db mice. Type of series: in vivo. The method, then: Eight week old ob/ob and db/db mice are treated for 3 to 4 weeks with a daily dose of 250 mg/kg of a compound of the present invention, such as […], by oral gavage or with drug mix with food or subcutaneously. […] Additionally, the levels of insulin are measured 15 min following the glucose loading to determine the capacity of the β-cells to secrete insulin.

The test system of series [7] is β-cells. The experiment in a line: In vivo beta cell protection model (alloxan), FIG. 6. Further details: species or system cd-1 mice. To be noted: for effect of alloxan on β-cells: lysine salts, single i.p. administration 1 hour before alloxan 200 mg/kg. As for the experimental part:
Beta-cell destruction was induced in cd-1 mice after 3 hours of fasting by a single intraperitoneal injection of a freshly prepared solution of alloxan 200 mg/kg (Sigma-Aldrich, San Luis, Mo.) that was dissolved in NaCl 0.9%. Single intraperitoneal drug administration was 1 hour before the alloxan administration. Animals received the different drugs dissolved in PBS pH 7.4, and the animals that not received any drug were injected with the vehicle, in this case PBS pH 7.4. At the end of the treatment, at day 4, animals were killed and the plasma collected and kept at −20° C. until used.
The circulating glucose concentration was determined by a rapid glucose analyzer (Accu-Chek Aviva; Roche). Plasma triglycerides and non esterified fatty acids were determined with standard colorimetric methods (Biosystems, Barcelona, Spain, and Wako Chemicals, Neuss, Germany, respectively). Plasma insulin concentration was determined by enzyme-linked immunosorbent assay method (CrystalChem, Downers Grove, Ill.).

For series [8], the system named is IKKβ. To be noted: diabetic animals; cited from earlier work.
The subject of series [9] is human diabetic patients. To be noted: 4.5 g/day; cited from earlier work.
Series [10] deals with Zucker fa/fa rats or ob/ob mice. As to conditions: 120 mg/kg/day subcutaneous infusion, 3-4 weeks; cited from earlier work.
Where [11] appears, read: 250 mg/kg/day oral or i.p., vs control group.

Consider 5 compounds from patent US20130281413A1, “Salicylate Conjugates Useful For Treating Metabolic Disorders” (Genmedica Therapeutics SL, priority 2008, published 2013).

For the compound `CC(=O)N[C@@H](CSC(=O)c1ccccc1O)C(=O)O` [Example 1, (R)-2-acetamido-3-(2-hydroxybenzoylthio)propanoic acid], in [1] (6 weeks, vs control group), the Hb1Ac entry is given as “reduced in comparison to the control group”, the cholesterol entry was “reduced in comparison to the control group”, the fasting glucose entry is given as “reduced in comparison to the control group” and the fructosamine entry is on record as “reduced in comparison to the control group”. Besides, the triglycerides result in series [1] (6 weeks, vs control group) is “reduced in comparison to the control group”. In addition, in series [1] (from 6 to 12 weeks of age), the glucose tolerance test result was “improves the glucose tolerance test”, the “insulin secretion from β-cells” value is “preserves insulin secretion from β-cells” and the worsening of hyperglycemia entry was “partially prevents the worsening of hyperglycemia”. Further, in [2] (setting [11]), the cholesterol entry is listed as “reduced in comparison to control group”, the fasting glucose entry is given as “reduced in comparison to control group”, the fructosamine result was “reduced in comparison to control group” and the triglycerides result is “reduced in comparison to control group”. Moreover, the “reduction in plasmatic parameters compared with a salicylate or an antioxidant alone” value in series [2] (250 mg/kg/day, vs salicylic acid alone or N-acetylcysteine alone) is reported as “more pronounced”. For the same compound, the “hypolipidemic, anti-diabetic and antioxidant effects” value in series [3] is “strong hypolipidemic and anti-diabetic effects as well as antioxidant properties”. Also, the blood glucose level result in [4] (pretreated rats vs control group, associated with preserved capacity of β-cell to secrete insulin) is “lower than the control group”. Also, the “β-cell preservation and development of hyperglycemia” value in [4] (rats, ~250 mg/kg orally and/or intraperitoneally prior to streptozotocin 45 mg/kg i.p., followed by 4 additional treatment days) is given as “preserve β-cells, reducing the development of hyperglycemia”. For the same compound, the “levels of 8-hydroxy-deoxyguanosine (8 OhdG) and malondialdehyde+4-hydroxy-2-nonenal (4HNE)” value in series [4] (streptozotocin model, markers of oxidative stress and lipid peroxidation in the blood) is “reduce”. The “β-cell protection from oxidative stress and development of hyperglycemia over time” value in [5] was “protects β-cells from oxidative stress and reduces the development of hyperglycemia over time compared to control”. The “fasting blood glucose values” in series [6] (250 mg/kg daily, 3 to 4 weeks, oral gavage, in food or subcutaneously, vs control or salicylate/antioxidant alone) is on record as “reduced compared to the control group”. In addition, in series [6] (evidenced by a sustained and pronounced glucose lowering effect), the insulin sensitivity result is on record as “improve insulin sensitivity”. For the same compound, the “capacity of the β-cells to secrete insulin” value in [6] (insulin measured 15 min following the glucose loading, vs control) is recorded as “greater”. Further, in series [6] (level of associated biomarkers), the “oxidative stress and lipid peroxidation (8 OhdG, malondialdehyde, 4HNE)” value was “a reduction in oxidative stress and lipid peroxidation”. Further, the “levels of glutathione (GSH)” value in series [6] (liver and kidney) is “restored”. Besides, the “inflammatory cytokines TNFα and IL-6” value in [6] (mouse, in vivo) is reported as “reduced”. In series [6] (vs non treated animal), the “glucose tolerance test (OGTT or IPTT): elevation of glucose levels” value was “a reduction in the elevation of glucose levels during the test”. For the same compound, the insulin levels entry in series [7] (alloxan-treated animals, indicates pancreatic beta cell protection) is reported as “preservation of insulin levels”.
Turning to `O=C(Oc1ccccc1C(=O)O)c1ccccc1O` [salsalate], in series [8], the IKKβ activity result is “decrease in IKKβ activity” and the insulin sensitivity result is listed as “improvement in insulin sensitivity”. Further, in series [9], the “effects in human diabetic patients” value is “Beneficial effects” and the “side effects, such as tinnitus, enhanced by” value was 66%.
In the case of `CC(=O)NC(CSC(=O)c1ccccc1O)C(=O)O` (stereo not shown) [GMC-1.3a, salicylic acid-(L) N-acetyl cysteine], in series [7], the “effect of alloxan on β-cells” value is on record as “reduce the effect of alloxan on β-cells”.
For `O=C(O)c1ccccc1O` [Salicylate], in series [10], the fasting blood glucose entry is reported as “reduction in fasting blood glucose” and the glucose tolerance entry is recorded as “glucose tolerance improvement”.
As for `CC(=O)N[C@@H](CSC(=O)c1cc(-c2ccc(F)cc2F)ccc1O)C(=O)O` [GMC-1.3b, diflunisal-(L) N-acetyl cysteine], the “effect of alloxan on β-cells” value in series [7] was “reduce the effect of alloxan on β-cells”.
